Patent US9296741B2, “Bromodomain inhibitors” (priority 2012, dated 2016)

Assays:
[1] = molecular target: human BRD4 first bromodomain (BDI_K57-E168) (Homo sapiens (Human), UniProt O60885); test: TR-FRET bromodomain binding assay, BRD4 first bromodomain
[2] = molecular target: human BRD4 second bromodomain (BDII_E352-M457) (Homo sapiens (Human), UniProt O60885); test: TR-FRET bromodomain binding assay, BRD4 second bromodomain
[3] = tested on: breast cancer cell line MX-1; test: MX-1 cell line proliferation assay; assay type: cell-based, human; settings: Homo sapiens, MX1, 72 h; MX-1 cells, 3-day proliferation, Cell Titer Glo; read-out: Cellular proliferation: EC50
[4] = Rat liver microsome stability assay; assay type: in vitro ADME; settings: rat liver microsomes (male Sprague-Dawley), 0.5 μM test compound, […] microsomal protein, pH 7.4, 37° C.

Row | Structure (SMILES) | Ki [1] [nM] | Ki [2] [nM] | EC50 [3] [nM] | Stability in rat liver microsomes (t1/2 in minutes) [4] [min]
1 | Cn1cc(-c2cc([N+](=O)[O-])ccc2Oc2ccccc2)c2cc[nH]c2c1=O [Example 2, 6-methyl-4-(5-nitro-2-phenoxyphenyl)-1,6-dihydro-7H-pyrrolo[2,3-c]pyridin-7-one] | 529 | 178 | 860 | 
2 | CCOC(=O)c1ccc(Oc2ccccc2)c(-c2cn(C)c(=O)c3[nH]ccc23)c1 [Example 9, ethyl 3-(6-methyl-7-oxo-6,7-dihydro-1H-pyrrolo[2,3-c]pyridin-4-yl)-4-phenoxybenzoate] |  |  | 113 | 1
3 | Cn1cc(-c2cc(NS(C)(=O)=O)ccc2Oc2ccccc2C#N)c2cc[nH]c2c1=O [Example 25, N-[4-(2-cyanophenoxy)-3-(6-methyl-7-oxo-6,7-dihydro-1H-pyrrolo[2,3-c]pyridin-4-yl)phenyl]methanesulfonamide] | 3 | 3.6 | 56.2 | 
4 | CN1CCC(NC(=O)c2ccc(Oc3ccc(F)cc3F)c(-c3cn(C)c(=O)c4[nH]ccc34)c2)C1=O (stereo not shown) [Example 53, 4-(2,4-difluorophenoxy)-3-(6-methyl-7-oxo-6,7-dihydro-1H-pyrrolo[2,3-c]pyridin-4-yl)-N-(1-methyl-2-oxopyrrolidin-3-yl)benzamide] | 62.2 | 5.4 | 76.5 | 
5 | COC(=O)c1cc2c(-c3ccccc3Oc3ccccc3)cn(C)c(=O)c2n1C [Example 68, methyl 1,6-dimethyl-7-oxo-4-(2-phenoxyphenyl)-6,7-dihydro-1H-pyrrolo[2,3-c]pyridine-2-carboxylate] | 1700 | 2550 | 5900 | 
6 | CCOC(=O)c1cc2c(-c3cc(N(CC)S(C)(=O)=O)ccc3Oc3ccccc3)nn(C)c(=O)c2[nH]1 [Example 76, ethyl 4-{5-[ethyl(methylsulfonyl)amino]-2-phenoxyphenyl}-6-methyl-7-oxo-6,7-dihydro-1H-pyrrolo[2,3-d]pyridazine-2-carboxylate] | 65.8 | 29.7 | 290 | 
7 | Cn1nc(-c2cc(NS(C)(=O)=O)ccc2Oc2ccccc2)c2cc(C(=O)O)[nH]c2c1=O [Example 77, 6-methyl-4-{5-[(methylsulfonyl)amino]-2-phenoxyphenyl}-7-oxo-6,7-dihydro-1H-pyrrolo[2,3-d]pyridazine-2-carboxylic acid] |  |  | > 3000 | 
8 | CN1CCN(CCNC(=O)c2cc3c(-c4cc(NS(C)(=O)=O)ccc4Oc4ccccc4)nn(C)c(=O)c3[nH]2)CC1 [Example 79, 6-methyl-N-[2-(4-methylpiperazin-1-yl)ethyl]-4-{5-[(methylsulfonyl)amino]-2-phenoxyphenyl}-7-oxo-6,7-dihydro-1H-pyrrolo[2,3-d]pyridazine-2-carboxamide] |  |  | 887 | 
9 | CCNC(=O)c1cc2c(-c3cc(NS(C)(=O)=O)ccc3Oc3ccccc3)nn(C)c(=O)c2[nH]1 [Example 81, N-ethyl-6-methyl-4-{5-[(methylsulfonyl)amino]-2-phenoxyphenyl}-7-oxo-6,7-dihydro-1H-pyrrolo[2,3-d]pyridazine-2-carboxamide] | 9.5 | 0.99 | 103 | 
10 | Cn1cc(-c2cc(NS(C)(=O)=O)ccc2Oc2ccccc2)c2cc(CO)[nH]c2c1=O [Example 89, N-{3-[2-(hydroxymethyl)-6-methyl-7-oxo-6,7-dihydro-1H-pyrrolo[2,3-c]pyridin-4-yl]-4-phenoxyphenyl}methanesulfonamide] | 1.6 | 2.1 | 25.2 | 
11 | CCS(=O)(=O)Nc1ccc(Oc2ccc(C#N)cc2)c(-c2cn(C)c(=O)c3[nH]ccc23)c1 [Example 90, N-[4-(4-cyanophenoxy)-3-(6-methyl-7-oxo-6,7-dihydro-1H-pyrrolo[2,3-c]pyridin-4-yl)phenyl]ethanesulfonamide] | 4 | 6.8 | 16.8 | 
12 | CN(C)S(=O)(=O)c1cnc(OC2CCOC2)c(-c2cn(C)c(=O)c3[nH]ccc23)c1 (stereo not shown) [Example 110, N,N-dimethyl-5-(6-methyl-7-oxo-6,7-dihydro-1H-pyrrolo[2,3-c]pyridin-4-yl)-6-(tetrahydrofuran-3-yloxy)pyridine-3-sulfonamide] |  |  | 32.4 | 
13 | Cn1cc(-c2cc(NS(=O)(=O)CCF)ccc2Oc2ccc(C#N)cc2)c2cc[nH]c2c1=O [Example 113, N-[4-(4-cyanophenoxy)-3-(6-methyl-7-oxo-6,7-dihydro-1H-pyrrolo[2,3-c]pyridin-4-yl)phenyl]-2-fluoroethanesulfonamide] | 47.4 | 381 | > 3000 | 
14 | CCS(=O)(=O)Nc1ccc(OCc2cc(C)nn2C)c(-c2cn(C)c(=O)c3[nH]ccc23)c1 [Example 143, N-{4-[(1,3-dimethyl-1H-pyrazol-5-yl)methoxy]-3-(6-methyl-7-oxo-6,7-dihydro-1H-pyrrolo[2,3-c]pyridin-4-yl)phenyl}ethanesulfonamide] | 22.3 | 107 | 370 | 
15 | Cn1cc(-c2cc(S(C)(=O)=O)ccc2Oc2cc(C(F)(F)F)ccc2Cl)c2cc[nH]c2c1=O [Example 163, 4-{2-[2-chloro-5-(trifluoromethyl)phenoxy]-5-(methylsulfonyl)phenyl}-6-methyl-1,6-dihydro-7H-pyrrolo[2,3-c]pyridin-7-one] |  |  | 295 | 
16 | Cn1cc(-c2cc(S(C)(=O)=O)ccc2Oc2cccc(Cl)c2F)c2cc[nH]c2c1=O [Example 184, 4-[2-(3-chloro-2-fluorophenoxy)-5-(methylsulfonyl)phenyl]-6-methyl-1,6-dihydro-7H-pyrrolo[2,3-c]pyridin-7-one] |  |  | 78.8 | 
17 | Cn1cc(-c2cc(S(C)(=O)=O)ccc2OC2CCCC2)c2cc[nH]c2c1=O [Example 216, 4-[2-(cyclopentyloxy)-5-(methylsulfonyl)phenyl]-6-methyl-1,6-dihydro-7H-pyrrolo[2,3-c]pyridin-7-one] | 1.8 | 1.8 | 6.6 | 
18 | Cn1cc(-c2cc(S(C)(=O)=O)ccc2OCCC2CC2)c2cc[nH]c2c1=O [Example 219, 4-[2-(2-cyclopropylethoxy)-5-(methylsulfonyl)phenyl]-6-methyl-1,6-dihydro-7H-pyrrolo[2,3-c]pyridin-7-one] | 3.6 | 2.9 | 17.7 | 
19 | CC1CCC(Oc2ccc(S(C)(=O)=O)cc2-c2cn(C)c(=O)c3[nH]ccc23)CC1 (stereo not shown) [Example 233, 6-methyl-4-{2-[(4-methylcyclohexyl)oxy]-5-(methylsulfonyl)phenyl}-1,6-dihydro-7H-pyrrolo[2,3-c]pyridin-7-one] | 2.2 | 1.5 | 6.9 | 
20 | Cn1cc(-c2cc(S(C)(=O)=O)ccc2OCC2CCC2)c2cc[nH]c2c1=O [Example 234, 4-[2-(cyclobutylmethoxy)-5-(methylsulfonyl)phenyl]-6-methyl-1,6-dihydro-7H-pyrrolo[2,3-c]pyridin-7-one] | 3 | 3.4 | 15.9 | 
21 | CNS(=O)(=O)c1ccc(NCC2CC2)c(-c2cn(C)c(=O)c3[nH]ccc23)c1 [Example 239, 4-[(cyclopropylmethyl)amino]-N-methyl-3-(6-methyl-7-oxo-6,7-dihydro-1H-pyrrolo[2,3-c]pyridin-4-yl)benzenesulfonamide] | 2.8 | 2.4 | 10.1 | 
